Assay results: publication doi:10.1101/2023.03.24.534094v2 (biorxiv, 2023)
Like-named read-outs stand apart in the source and are kept apart here. One block for each molecule: values may come before it.

Tests used:
Experiment in all cases: biochemical
[1] = target: AAK1 (Homo sapiens, UniProt Q2M2I8)
[2] = target: CDKL1 (Homo sapiens, UniProt Q00532)
[3] = target: CK2a1 (Homo sapiens, UniProt P68400)
[4] = target: CLK3 (Homo sapiens, UniProt P49761)
[5] = target: T1, Haspin (Homo sapiens, UniProt Q8TF76)
T1 sequence (Q8TF76 1-798): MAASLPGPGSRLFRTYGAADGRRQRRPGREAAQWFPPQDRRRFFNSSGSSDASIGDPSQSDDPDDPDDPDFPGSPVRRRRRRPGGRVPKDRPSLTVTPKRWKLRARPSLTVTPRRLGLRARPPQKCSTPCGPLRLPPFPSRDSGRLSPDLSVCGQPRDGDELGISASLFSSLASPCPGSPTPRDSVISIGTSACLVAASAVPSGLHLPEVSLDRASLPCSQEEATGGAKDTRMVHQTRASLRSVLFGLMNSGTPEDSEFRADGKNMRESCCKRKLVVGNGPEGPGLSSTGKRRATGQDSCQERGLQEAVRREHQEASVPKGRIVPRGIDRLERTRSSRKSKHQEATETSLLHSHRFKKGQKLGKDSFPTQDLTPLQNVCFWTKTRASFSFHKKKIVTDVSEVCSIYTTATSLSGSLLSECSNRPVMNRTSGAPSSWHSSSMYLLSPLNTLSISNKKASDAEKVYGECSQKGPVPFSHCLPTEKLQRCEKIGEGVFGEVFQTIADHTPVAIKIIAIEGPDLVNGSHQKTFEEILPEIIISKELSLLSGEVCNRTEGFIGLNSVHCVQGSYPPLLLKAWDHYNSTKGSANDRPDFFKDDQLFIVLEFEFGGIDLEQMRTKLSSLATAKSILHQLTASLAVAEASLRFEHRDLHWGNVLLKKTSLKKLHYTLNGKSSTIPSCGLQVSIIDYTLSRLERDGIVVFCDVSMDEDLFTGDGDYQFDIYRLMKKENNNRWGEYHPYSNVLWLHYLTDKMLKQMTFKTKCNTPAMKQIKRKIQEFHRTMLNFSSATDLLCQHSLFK

[6] = target: JNK1 (Homo sapiens, UniProt P45983)
[7] = target: JNK2 (Homo sapiens, UniProt P45984)
[8] = target: MARK3 (Homo sapiens, UniProt P27448)
[9] = target: T2, MARK4 (Homo sapiens, UniProt Q96L34)
T2 sequence (Q96L34 1-752): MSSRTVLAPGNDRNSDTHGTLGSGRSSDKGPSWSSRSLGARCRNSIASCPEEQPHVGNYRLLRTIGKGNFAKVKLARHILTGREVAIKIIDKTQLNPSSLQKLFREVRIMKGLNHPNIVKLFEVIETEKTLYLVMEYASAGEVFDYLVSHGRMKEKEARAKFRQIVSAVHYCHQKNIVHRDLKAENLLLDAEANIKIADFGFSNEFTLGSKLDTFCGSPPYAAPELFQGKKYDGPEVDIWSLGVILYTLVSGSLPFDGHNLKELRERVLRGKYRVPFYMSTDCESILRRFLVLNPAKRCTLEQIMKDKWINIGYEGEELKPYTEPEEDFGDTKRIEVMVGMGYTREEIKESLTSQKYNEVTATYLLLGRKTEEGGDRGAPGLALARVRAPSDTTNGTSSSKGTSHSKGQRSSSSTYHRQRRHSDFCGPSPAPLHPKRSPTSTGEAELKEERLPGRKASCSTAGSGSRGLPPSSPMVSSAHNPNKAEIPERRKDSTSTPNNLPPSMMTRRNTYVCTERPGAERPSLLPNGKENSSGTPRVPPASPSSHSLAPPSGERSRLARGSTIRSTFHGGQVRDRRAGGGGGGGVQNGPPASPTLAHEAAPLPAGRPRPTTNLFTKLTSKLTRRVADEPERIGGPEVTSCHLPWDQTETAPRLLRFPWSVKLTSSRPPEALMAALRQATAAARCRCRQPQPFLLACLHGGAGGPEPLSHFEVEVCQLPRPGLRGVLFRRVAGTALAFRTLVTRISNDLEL

[10] = target: MSK1b (Homo sapiens, UniProt O75582)
[11] = target: PAK4 (Homo sapiens, UniProt O96013)
[12] = target: PIM3 (Homo sapiens, UniProt Q86V86)
[13] = target: RSK1b (Homo sapiens, UniProt Q15418)
[14] = target: SRC (Homo sapiens, UniProt P12931)
[15] = target: STLK3 (Homo sapiens, UniProt Q9UEW8)
[16] = target: p38a (Homo sapiens, UniProt Q16539)
p38a, sequence (Q16539 whole entry): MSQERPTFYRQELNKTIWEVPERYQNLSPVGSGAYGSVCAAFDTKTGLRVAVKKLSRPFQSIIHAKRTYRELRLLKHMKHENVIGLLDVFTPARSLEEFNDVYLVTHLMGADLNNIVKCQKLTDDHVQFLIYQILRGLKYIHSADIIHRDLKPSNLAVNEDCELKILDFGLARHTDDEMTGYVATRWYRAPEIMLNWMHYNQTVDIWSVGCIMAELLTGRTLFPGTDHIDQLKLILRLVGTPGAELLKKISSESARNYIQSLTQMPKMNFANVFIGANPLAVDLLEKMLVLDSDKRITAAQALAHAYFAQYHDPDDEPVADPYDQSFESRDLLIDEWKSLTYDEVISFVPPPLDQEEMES

RSK1b, sequence (Q15418 whole entry): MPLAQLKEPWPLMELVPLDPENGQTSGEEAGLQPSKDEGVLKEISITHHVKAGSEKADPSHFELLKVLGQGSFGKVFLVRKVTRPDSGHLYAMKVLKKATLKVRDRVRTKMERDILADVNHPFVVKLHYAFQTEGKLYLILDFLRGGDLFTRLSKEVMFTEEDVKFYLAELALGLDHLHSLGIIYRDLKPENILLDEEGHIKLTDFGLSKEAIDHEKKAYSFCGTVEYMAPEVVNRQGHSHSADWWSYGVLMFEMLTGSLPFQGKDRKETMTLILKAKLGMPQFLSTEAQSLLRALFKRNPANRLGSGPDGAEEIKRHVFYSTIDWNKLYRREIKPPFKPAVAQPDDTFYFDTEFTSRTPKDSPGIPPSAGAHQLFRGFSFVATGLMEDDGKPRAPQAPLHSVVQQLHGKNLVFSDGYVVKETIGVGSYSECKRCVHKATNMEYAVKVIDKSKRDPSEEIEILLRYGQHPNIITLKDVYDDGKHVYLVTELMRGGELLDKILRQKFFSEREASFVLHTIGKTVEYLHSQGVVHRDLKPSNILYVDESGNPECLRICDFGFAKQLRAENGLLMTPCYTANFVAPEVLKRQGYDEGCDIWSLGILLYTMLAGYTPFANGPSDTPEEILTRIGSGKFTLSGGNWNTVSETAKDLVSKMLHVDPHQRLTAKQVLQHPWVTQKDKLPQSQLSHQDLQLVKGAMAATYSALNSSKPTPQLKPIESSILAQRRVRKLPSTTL
SRC, sequence (P12931 whole entry): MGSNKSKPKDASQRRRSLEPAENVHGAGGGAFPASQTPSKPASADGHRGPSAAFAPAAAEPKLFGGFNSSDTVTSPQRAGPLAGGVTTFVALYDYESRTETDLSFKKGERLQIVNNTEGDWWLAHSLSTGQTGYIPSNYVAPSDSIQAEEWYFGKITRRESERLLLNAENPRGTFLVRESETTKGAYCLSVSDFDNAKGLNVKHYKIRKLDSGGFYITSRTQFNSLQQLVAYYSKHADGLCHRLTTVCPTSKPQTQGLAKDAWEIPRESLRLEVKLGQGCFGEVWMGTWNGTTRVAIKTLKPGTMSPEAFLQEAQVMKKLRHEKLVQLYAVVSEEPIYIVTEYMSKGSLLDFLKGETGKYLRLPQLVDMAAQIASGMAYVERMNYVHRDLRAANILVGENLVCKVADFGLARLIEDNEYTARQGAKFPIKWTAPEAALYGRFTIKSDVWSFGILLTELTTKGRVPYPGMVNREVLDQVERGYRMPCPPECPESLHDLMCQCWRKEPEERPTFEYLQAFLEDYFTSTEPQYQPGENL
JNK2, sequence (P45984 whole entry): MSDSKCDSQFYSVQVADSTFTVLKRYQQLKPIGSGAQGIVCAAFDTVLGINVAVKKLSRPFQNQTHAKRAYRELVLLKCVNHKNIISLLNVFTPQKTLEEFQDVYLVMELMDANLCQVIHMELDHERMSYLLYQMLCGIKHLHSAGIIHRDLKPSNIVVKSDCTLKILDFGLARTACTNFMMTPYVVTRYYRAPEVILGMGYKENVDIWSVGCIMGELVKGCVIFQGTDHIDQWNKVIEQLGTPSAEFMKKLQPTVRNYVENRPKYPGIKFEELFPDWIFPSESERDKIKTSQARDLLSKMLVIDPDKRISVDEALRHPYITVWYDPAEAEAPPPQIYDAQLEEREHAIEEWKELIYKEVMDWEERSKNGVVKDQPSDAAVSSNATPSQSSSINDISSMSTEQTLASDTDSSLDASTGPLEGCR
CLK3, sequence (P49761 whole entry): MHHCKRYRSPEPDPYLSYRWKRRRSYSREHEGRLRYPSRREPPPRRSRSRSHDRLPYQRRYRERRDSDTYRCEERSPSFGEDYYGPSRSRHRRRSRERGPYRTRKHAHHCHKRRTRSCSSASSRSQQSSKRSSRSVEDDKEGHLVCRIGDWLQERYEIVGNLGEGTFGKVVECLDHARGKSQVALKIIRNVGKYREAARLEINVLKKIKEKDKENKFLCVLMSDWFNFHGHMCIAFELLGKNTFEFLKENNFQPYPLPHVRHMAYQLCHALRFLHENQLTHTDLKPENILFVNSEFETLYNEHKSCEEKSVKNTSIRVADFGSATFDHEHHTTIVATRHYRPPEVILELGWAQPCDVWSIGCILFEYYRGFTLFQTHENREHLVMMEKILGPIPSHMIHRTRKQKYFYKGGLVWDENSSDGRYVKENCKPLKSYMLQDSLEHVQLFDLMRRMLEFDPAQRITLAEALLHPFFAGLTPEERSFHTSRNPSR
JNK1, sequence (P45983 whole entry): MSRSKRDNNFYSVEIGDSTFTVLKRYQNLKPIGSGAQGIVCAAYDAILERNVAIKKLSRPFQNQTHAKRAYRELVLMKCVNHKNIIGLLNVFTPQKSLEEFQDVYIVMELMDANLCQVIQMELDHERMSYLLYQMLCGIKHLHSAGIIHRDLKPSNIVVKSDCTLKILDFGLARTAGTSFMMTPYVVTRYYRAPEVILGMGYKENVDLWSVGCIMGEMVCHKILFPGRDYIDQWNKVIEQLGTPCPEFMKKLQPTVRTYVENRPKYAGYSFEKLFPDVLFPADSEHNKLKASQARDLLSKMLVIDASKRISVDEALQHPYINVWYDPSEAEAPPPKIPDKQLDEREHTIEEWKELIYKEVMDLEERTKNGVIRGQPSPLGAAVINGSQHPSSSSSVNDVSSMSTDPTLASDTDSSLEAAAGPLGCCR
CK2a1, sequence (P68400 whole entry): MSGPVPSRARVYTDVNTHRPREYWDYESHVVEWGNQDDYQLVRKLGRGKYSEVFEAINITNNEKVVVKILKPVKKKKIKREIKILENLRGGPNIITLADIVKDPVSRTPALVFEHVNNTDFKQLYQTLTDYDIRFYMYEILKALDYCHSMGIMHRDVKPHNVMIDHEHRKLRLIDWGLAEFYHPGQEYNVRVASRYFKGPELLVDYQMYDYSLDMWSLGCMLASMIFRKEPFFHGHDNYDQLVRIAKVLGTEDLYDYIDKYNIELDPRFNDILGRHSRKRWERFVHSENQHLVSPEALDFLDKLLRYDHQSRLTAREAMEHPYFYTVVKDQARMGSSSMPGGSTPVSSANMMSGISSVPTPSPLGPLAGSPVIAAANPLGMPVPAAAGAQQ
PAK4, sequence (O96013 whole entry): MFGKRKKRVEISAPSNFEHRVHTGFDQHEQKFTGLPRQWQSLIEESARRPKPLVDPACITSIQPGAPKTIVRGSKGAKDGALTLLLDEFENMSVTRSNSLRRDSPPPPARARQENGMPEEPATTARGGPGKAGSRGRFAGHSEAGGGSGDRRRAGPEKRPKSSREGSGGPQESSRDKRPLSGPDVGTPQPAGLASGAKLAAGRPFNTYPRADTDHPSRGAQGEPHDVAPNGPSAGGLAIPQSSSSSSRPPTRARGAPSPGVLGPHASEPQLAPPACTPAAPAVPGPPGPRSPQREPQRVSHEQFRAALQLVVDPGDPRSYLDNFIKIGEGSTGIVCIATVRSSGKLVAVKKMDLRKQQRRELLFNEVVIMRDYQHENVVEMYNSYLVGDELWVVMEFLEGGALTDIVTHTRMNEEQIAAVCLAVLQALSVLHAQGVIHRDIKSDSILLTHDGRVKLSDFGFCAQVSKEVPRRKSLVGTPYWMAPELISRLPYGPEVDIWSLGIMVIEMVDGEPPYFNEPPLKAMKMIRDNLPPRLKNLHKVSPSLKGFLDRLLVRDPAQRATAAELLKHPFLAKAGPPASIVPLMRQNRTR
CDKL1, sequence (Q00532 whole entry): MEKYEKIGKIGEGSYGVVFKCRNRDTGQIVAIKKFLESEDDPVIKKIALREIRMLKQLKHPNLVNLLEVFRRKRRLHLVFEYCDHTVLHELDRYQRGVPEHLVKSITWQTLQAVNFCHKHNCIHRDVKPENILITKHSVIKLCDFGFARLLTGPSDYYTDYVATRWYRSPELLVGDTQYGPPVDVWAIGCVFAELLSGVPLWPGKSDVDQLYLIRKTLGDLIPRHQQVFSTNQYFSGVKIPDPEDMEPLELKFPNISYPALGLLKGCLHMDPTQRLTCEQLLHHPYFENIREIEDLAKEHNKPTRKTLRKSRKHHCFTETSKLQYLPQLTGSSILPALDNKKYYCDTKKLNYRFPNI

ΔTm at 10 µM ([1]; read-out: dTm 12): 0.5 °C
ΔTm at 10 µM ([2]; read-out: dTm 12): 0.2 °C
ΔTm at 10 µM ([3]; read-out: dTm 12): -0.2 °C
ΔTm at 10 µM ([4]; read-out: dTm 12): -0.3 °C
ΔTm at 10 µM ([5]; read-out: dTm 12): -0.4 °C
ΔTm at 10 µM ([6]; read-out: dTm 12): 0.7 °C
ΔTm at 10 µM ([7]; read-out: dTm 12): 0.2 °C
ΔTm at 10 µM ([8]; read-out: dTm 12): 5.3 °C
ΔTm at 10 µM ([9]; read-out: dTm 12): 4.5 °C
ΔTm at 10 µM ([10]; read-out: dTm 12): 1 °C
ΔTm at 10 µM ([11]; read-out: dTm 12): 1.8 °C
ΔTm at 10 µM ([12]; read-out: dTm 12): -1.2 °C
ΔTm at 10 µM ([13]; read-out: dTm 12): -0.2 °C
ΔTm at 10 µM ([14]; read-out: dTm 12): 1.2 °C
ΔTm at 10 µM ([15]; read-out: dTm 12): 12.1 °C
ΔTm at 10 µM ([16]; read-out: dTm 12): 0.4 °C
Structure (SMILES): CNc1ncc2cc(-c3cc(F)c(-c4cccc(C)n4)cc3F)c(=O)n(CCCCN)c2n1 [compound 12, 8-(4-Aminobutyl)-6-(2,5-difluoro-4-(6-methylpyridin-2-yl)phenyl)-2-(methylamino)pyrido[2,3-d]pyrimidin-7(8H)-one]

ΔTm at 10 µM ([1]; read-out: dTm 11): 0.4 °C
ΔTm at 10 µM ([2]; read-out: dTm 11): 0.4 °C
ΔTm at 10 µM ([3]; read-out: dTm 11): 1.1 °C
ΔTm at 10 µM ([4]; read-out: dTm 11): 0.4 °C
ΔTm at 10 µM ([5]; read-out: dTm 11): 0.7 °C
ΔTm at 10 µM ([6]; read-out: dTm 11): 0.9 °C
ΔTm at 10 µM ([7]; read-out: dTm 11): 1.2 °C
ΔTm at 10 µM ([8]; read-out: dTm 11): 3.6 °C
ΔTm at 10 µM ([9]; read-out: dTm 11): 1.8 °C
ΔTm at 10 µM ([10]; read-out: dTm 11): 2 °C
ΔTm at 10 µM ([11]; read-out: dTm 11): 1.1 °C
ΔTm at 10 µM ([12]; read-out: dTm 11): 0.9 °C
ΔTm at 10 µM ([13]; read-out: dTm 11): 5.8 °C
ΔTm at 10 µM ([14]; read-out: dTm 11): 0.4 °C
ΔTm at 10 µM ([15]; read-out: dTm 11): 0.3 °C
ΔTm at 10 µM ([16]; read-out: dTm 11): 6.4 °C
Structure (SMILES): CNc1ncc2cc(-c3cc(Br)ccc3Br)c(=O)n(CCCCN)c2n1 [compound 11, 8-(4-Aminobutyl)-6-(2,5-dibromophenyl)-2-(methylamino)pyrido[2,3-d]pyrimidin-7(8H)-one]

ΔTm at 10 µM ([1]; read-out: dTm 9): 0 °C
ΔTm at 10 µM ([2]; read-out: dTm 9): 0 °C
ΔTm at 10 µM ([3]; read-out: dTm 9): 0.1 °C
ΔTm at 10 µM ([4]; read-out: dTm 9): 0.4 °C
ΔTm at 10 µM ([5]; read-out: dTm 9): 0.1 °C
ΔTm at 10 µM ([6]; read-out: dTm 9): 0.6 °C
ΔTm at 10 µM ([7]; read-out: dTm 9): 1 °C
ΔTm at 10 µM ([8]; read-out: dTm 9): 0.7 °C
ΔTm at 10 µM ([9]; read-out: dTm 9): 0 °C
ΔTm at 10 µM ([10]; read-out: dTm 9): 0.9 °C
ΔTm at 10 µM ([11]; read-out: dTm 9): 0.5 °C
ΔTm at 10 µM ([12]; read-out: dTm 9): 0.4 °C
ΔTm at 10 µM ([13]; read-out: dTm 9): 4.5 °C
ΔTm at 10 µM ([14]; read-out: dTm 9): 0 °C
ΔTm at 10 µM ([15]; read-out: dTm 9): 0.3 °C
ΔTm at 10 µM ([16]; read-out: dTm 9): 4.2 °C
Structure (SMILES): CNc1ncc2cc(-c3cc(C(F)(F)F)ccc3Cl)c(=O)n(CCCCN)c2n1 [compound 9, 8-(4-Aminobutyl)-6-(2-chloro-5-(trifluoromethyl)phenyl)-2-(methylamino)pyrido[2,3-d]pyrimidin-7(8H)-one]

ΔTm at 10 µM ([1]; read-out: dTm 10): 0.5 °C
ΔTm at 10 µM ([2]; read-out: dTm 10): 0.3 °C
ΔTm at 10 µM ([3]; read-out: dTm 10): 1.3 °C
ΔTm at 10 µM ([4]; read-out: dTm 10): 0.4 °C
ΔTm at 10 µM ([5]; read-out: dTm 10): 0.6 °C
ΔTm at 10 µM ([6]; read-out: dTm 10): 0.8 °C
ΔTm at 10 µM ([7]; read-out: dTm 10): 0.9 °C
ΔTm at 10 µM ([8]; read-out: dTm 10): 3.7 °C
ΔTm at 10 µM ([9]; read-out: dTm 10): 1.7 °C
ΔTm at 10 µM ([10]; read-out: dTm 10): 2.1 °C
ΔTm at 10 µM ([11]; read-out: dTm 10): 1.3 °C
ΔTm at 10 µM ([12]; read-out: dTm 10): 0.8 °C
ΔTm at 10 µM ([13]; read-out: dTm 10): 6.2 °C
ΔTm at 10 µM ([14]; read-out: dTm 10): 0.6 °C
ΔTm at 10 µM ([15]; read-out: dTm 10): 0.3 °C
ΔTm at 10 µM ([16]; read-out: dTm 10): 6.1 °C
Structure (SMILES): CNc1ncc2cc(-c3cc(Cl)ccc3Br)c(=O)n(CCCCN)c2n1 [compound 10, 8-(4-Aminobutyl)-6-(2-bromo-5-chlorophenyl)-2-(methylamino)pyrido[2,3-d]pyrimidin-7(8H)-one]

ΔTm at 10 µM ([1]; read-out: dTm 8): 0.8 °C
ΔTm at 10 µM ([2]; read-out: dTm 8): 0.2 °C
ΔTm at 10 µM ([3]; read-out: dTm 8): 1.1 °C
ΔTm at 10 µM ([4]; read-out: dTm 8): 0.4 °C
ΔTm at 10 µM ([5]; read-out: dTm 8): 0.6 °C
ΔTm at 10 µM ([6]; read-out: dTm 8): 1.4 °C
ΔTm at 10 µM ([7]; read-out: dTm 8): 1.2 °C
ΔTm at 10 µM ([8]; read-out: dTm 8): 2.7 °C
ΔTm at 10 µM ([9]; read-out: dTm 8): 1 °C
ΔTm at 10 µM ([10]; read-out: dTm 8): 2.1 °C
ΔTm at 10 µM ([12]; read-out: dTm 8): 1 °C
ΔTm at 10 µM ([13]; read-out: dTm 8): 6.9 °C
ΔTm at 10 µM ([14]; read-out: dTm 8): 0.6 °C
ΔTm at 10 µM ([15]; read-out: dTm 8): 0.2 °C
ΔTm at 10 µM ([16]; read-out: dTm 8): 6 °C
Structure (SMILES): CNc1ncc2cc(-c3cc(Cl)ccc3Cl)c(=O)n(CCCCN)c2n1 [compound 8, 8-(4-Aminobutyl)-6-(2,5-dichlorophenyl)-2-(methylamino)pyrido[2,3-d]pyrimidin-7(8H)-one]
